Test results taken from article PMC7539012, “Hyperphosphorylated tau aggregation and cytotoxicity modulators screen identified prescription drugs linked to Alzheimer's disease and cognitive functions” (Scientific Reports, 2020).
Structures can show the parent of a compound that is named as a salt. Where a SMILES comes first, the peptide text is derived from it. Bridges are numbered along the chain shown (N, C = ends). [ ]: non-standard residue; d: D form. The star is where a group is joined. X2 = CCC(C)C(N)C1=NC(C(=O)*)CS1; dOrn = NCCC[C@@H](N)C(=O)O

test system: T1, 1N4R p-tau; assay: p-tau aggregation modulator screen of 1280-compound library (ThS fluorescence net change over 16 h); format: biochemical; parameters: key to PTAI>3SD: *: PTAI>3SD; details: not given;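 as to ThS net change: 30 µM compound with 6 µM p-tau over 16 h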
T1 construct: made in house; host or cells: E. coli (PIMAX system)

Point of comparison: `CN1[C@@H]2CC[C@H]1C[C@@H](OC(=O)C(CO)c1ccccc1)C2` (stereo partly drawn) [Atropine sulfate monohydrate], ThS net change 397. Against it:
- CCN(CC)Cc1cc(Nc2ccnc3cc(Cl)ccc23)ccc1O.Cl.Cl.O.O [Amodiaquin dihydrochloride dihydrate] — lower, 309
- CCC(C)(C)c1ccc(CC(C)CN2C[C@@H](C)O[C@@H](C)C2)cc1 (stereo partly drawn) [Amorolfine hydrochloride] — higher, 413
- CCCc1ncc(C[n+]2ccccc2C)c(N)n1 [Amprolium hydrochloride] — higher, 424
- C[C@]12CC[C@@H](O)C[C@@H]1CC[C@@H]1[C@@H]2CC[C@]2(C)C(=O)CC[C@@H]12 [Androsterone] — higher, 449
- CCC1(C)CC(=O)NC(=O)C1 [Bemegride] — higher, 431

same assay, conditions: 1280-compound library screen; ThS fluorescence net change over 16 h

Point of comparison: `Nc1ncn(C2O[C@H](CO)[C@@H](O)[C@H]2O)c(=O)n1` (stereo partly drawn) [Azacytidine-5], ThS net change 405. Against it:
- CC1(C)S[C@@H]2[C@H](NC(=O)[C@H](N)c3ccc(O)cc3)C(=O)N2[C@H]1C(=O)O [Amoxicillin] — lower, 388
- C[C@@H]1[C@H](O)[C@@H](C)/C=C/C=C/C=C/C=C/C=C/C=C/C=C/[C@H](O[C@@H]2O[C@H](C)[C@@H](O)[C@H](N)[C@@H]2O)C[C@@H]2O[C@](O)(C[C@@H](O)C[C@@H](O)[C@H](O)CC[C@@H](O)C[C@@H](O)CC(=O)O[C@H]1C)C[C@H](O)[C@H]2C(=O)O [Amphotericin B] — lower, 396
- Cc1c(N)c(=O)n(-c2ccccc2)n1C [Ampyrone] — lower, 388
- Nc1cc(-c2ccncc2)c[nH]c1=O [Amrinone] — higher, 410
- COc1ccc(C(=O)N2CCCC2=O)cc1 [Aniracetam] — higher, 408
- c1ccc(CN(CC2=NCCN2)c2ccccc2)cc1 [Antazoline hydrochloride] — lower, 399
- OC[C@H]1O[C@@H](Oc2ccc(O)cc2)[C@H](O)[C@@H](O)[C@@H]1O [Arbutin] — higher, 409
- CC1CNc2c(cccc2S(=O)(=O)N[C@@H](CCCNC(=N)N)C(=O)N2CC[C@@H](C)C[C@@H]2C(=O)O)C1 (stereo partly drawn) [Argatroban] — lower, 388
- O=C1CCc2ccc(OCCCCN3CCN(c4cccc(Cl)c4Cl)CC3)cc2N1 [Aripiprazole] — lower, 386
- CC1(C)S[C@@H]2[C@H](NC(=O)[C@H](NC(=O)N3CCNC3=O)c3ccccc3)C(=O)N2[C@H]1C(=O)O [Azlocillin sodium salt] — lower, 396
- C[C@H]1[C@H](NC(=O)/C(=N\OC(C)(C)C(=O)O)c2csc(N)n2)C(=O)N1S(=O)(=O)O [Aztreonam] — lower, 386
- O=C([O-])CCNC(=O)c1ccc(/N=N/c2ccc(O)c(C(=O)[O-])c2)cc1.[Na+].[Na+] [Balsalazide Sodium] — lower, 399
- CCOC(=O)[C@H](CCc1ccccc1)N[C@H]1CCc2ccccc2N(CC(=O)O)C1=O [Benazepril HCl] — lower, 382

same assay, conditions: 1280-compound library screen; […]

Point of comparison: `OC(c1ccccc1)(c1ccccc1)C1CCNCC1` [Azacyclonol], ThS net change 400. Against it:
- NC(=NCc1ccccc1)NC(=O)c1nc(Cl)c(N)nc1N [Benzamil hydrochloride] — lower, 379

same assay, conditions: flag: p-tau aggregation inhibitor, ThS net change more than 3 SD from mean

`O=C1CN2Cc3c(ccc(Cl)c3Cl)N=C2N1` [Anagrelide] was tested, and the “PTAI>3SD” value was “*”.
`COc1ccc(-c2cc(=S)ss2)cc1` [Anethole-trithione] was tested, and the “PTAI>3SD” value was “*”.
`O=C1c2c(O)cccc2Cc2cccc(O)c21` [Anthralin] was tested, and the “PTAI>3SD” value was “*”.
In the case of `CN1CCCC(n2nc(Cc3ccc(Cl)cc3)c3ccccc3c2=O)CC1` (stereo not drawn) [Azelastine HCl], the “PTAI>3SD” value is reported as “*”.

same assay, conditions: library screen, ThS fluorescence net change over 16 h with p-tau

Point of comparison: `COc1ccc(CCN2CCC(Nc3nc4ccccc4n3Cc3ccc(F)cc3)CC2)cc1` [Astemizole], ThS net change 265. Against it:
- O=C1CN2Cc3c(ccc(Cl)c3Cl)N=C2N1 [Anagrelide] — lower, 22
- COc1ccc(-c2cc(=S)ss2)cc1 [Anethole-trithione] — lower, 46
- O=C1c2c(O)cccc2Cc2cccc(O)c21 [Anthralin] — lower, 85
- CCCCCC[C@H]1C(=O)O[C@H](C)[C@H](NC(=O)c2cccc(NC=O)c2O)C(=O)O[C@@H](C)[C@@H]1OC(=O)CC(C)C [Antimycin A] — lower, 211
- O=C1C(O)=C([C@H]2CC[C@H](c3ccc(Cl)cc3)CC2)C(=O)c2ccccc21 [Atovaquone] — higher, 266
- COc1ccc(C(=O)CC(=O)c2ccc(C(C)(C)C)cc2)cc1 [Avobenzone] — lower, 250
- CN1CCCC(n2nc(Cc3ccc(Cl)cc3)c3ccccc3c2=O)CC1 (stereo not drawn) [Azelastine HCl] — lower, 0
- CCCCOc1cc(C(=O)OCCN(CC)CC)ccc1N [Benoxinate hydrochloride] — higher, 312

same assay, conditions: p-tau aggregation modulator screen of 1280-compound library; ThS fluorescence net change

Point of comparison: `CCC(=O)OCC(=O)[C@@]1(OC(=O)CC)[C@@H](C)C[C@H]2[C@@H]3CCC4=CC(=O)C=C[C@]4(C)[C@@]3(Cl)[C@@H](O)C[C@@]21C` [Beclomethasone dipropionate], ThS net change 354. Against it:
- CC1(C)S[C@@H]2[C@H](NC(=O)[C@H](N)c3ccccc3)C(=O)N2[C@H]1C(=O)O [Ampicillin trihydrate] — higher, 355
- Cc1c(O)c(=O)n(-c2ccccc2)n1C [Antipyrine, 4-hydroxy] — higher, 371
- C[C@@H]1CC[C@H]2[C@@H](C)C(=O)O[C@@H]3O[C@@]4(C)CC[C@@H]1[C@]32OO4 [Artemisinin] — higher, 356
- O=C1O[C@H]([C@@H](O)CO)C(O)=C1O [Ascorbic acid] — higher, 361
- COc1ccc(CC2c3cc(OC)c(OC)cc3CC[N+]2(C)CCC(=O)OCCCCCOC(=O)CC[N+]2(C)CCc3cc(OC)c(OC)cc3C2Cc2ccc(OC)c(OC)c2)cc1OC (stereo not drawn) [Atracurium besylate] — higher, 370
- CC[P](CC)(CC)=[Au][S][C@@H]1O[C@H](COC(C)=O)[C@@H](OC(C)=O)[C@H](OC(C)=O)[C@H]1OC(C)=O [Auranofin] — higher, 365
- Nc1nc2[nH]nnc2c(=O)[nH]1 [Azaguanine-8] — higher, 377
- Cn1cnc([N+](=O)[O-])c1Sc1ncnc2nc[nH]c12 [Azathioprine] — higher, 367
- CCOC(=O)OC(C)OC(=O)[C@@H]1N2C(=O)[C@@H](NC(=O)[C@H](N)c3ccccc3)[C@H]2SC1(C)C (stereo partly drawn) [Bacampicillin hydrochloride] — higher, 371
- CN(C)C(=O)Oc1cc(OC(=O)N(C)C)cc(C(O)CNC(C)(C)C)c1.Cl (stereo not drawn) [Bambuterol hydrochloride] — lower, 336
- NS(=O)(=O)c1cc2c(cc1C(F)(F)F)NC(Cc1ccccc1)NS2(=O)=O (stereo not drawn) [Bendroflumethiazide] — higher, 357
- CC(Cc1cccc(C(F)(F)F)c1)NCCOC(=O)c1ccccc1 (stereo not drawn) [Benfluorex] — higher, 375
- C/C(=C(\CCOP(=O)(O)O)SC(=O)c1ccccc1)N(C=O)Cc1cnc(C)nc1N [Benfotiamine] — higher, 375
- NC(CO)C(=O)NNCc1ccc(O)c(O)c1O (stereo not drawn) [Benserazide hydrochloride] — higher, 372

same assay, conditions: p-tau aggregation modulator screen of 1280-compound library; […]

Point of comparison: `CN1CC2c3ccccc3Oc3ccc(Cl)cc3C2C1` (stereo not drawn) [Asenapine maleate], ThS net change 375. Against it:
- CCC(C)(CN(C)C)OC(=O)c1ccccc1.Cl (stereo not drawn) [Amyleine hydrochloride] — lower, 365
- Cc1cc(=O)n(-c2ccccc2)n1C [Antipyrine] — lower, 359

same assay, conditions: p-tau aggregation modulator screen of the compound library, ThS fluorescence net change

Point of comparison: `CN1CCC(=C2c3ccccc3CCc3cccnc32)CC1` [Azatadine maleate], ThS net change 417. Against it:
- Clc1ccc2c(c1)C(N1CCNCC1)=Nc1ccccc1O2 [Amoxapine] — lower, 416
- CCOC(=O)OC(C)OC1=C(C(=O)Nc2ccccn2)N(C)S(=O)(=O)c2ccccc21 (stereo not drawn) [Ampiroxicam] — higher, 493
- CC(C)(C#N)c1cc(Cn2cncn2)cc(C(C)(C)C#N)c1 [Anastrozole] — higher, 484
- CN[C@@H]1[C@@H](O[C@H]2O[C@H](CO)[C@@H](N)[C@H](O)[C@H]2O)OC2C[C@@H](N)[C@@H](O[C@H]3[C@H](O)[C@@H](O)[C@H](N)C[C@@H]3N)OC2[C@@H]1O (stereo partly drawn) [Apramycin] — lower, 416
- C[C@@H](O[C@H]1OCCN(Cc2n[nH]c(=O)[nH]2)[C@H]1c1ccc(F)cc1)c1cc(C(F)(F)F)cc(C(F)(F)F)c1 [Aprepitant] — higher, 451
- CCCNC(C)C(=O)Nc1c(C)csc1C(=O)OC (stereo not drawn) [Articaine hydrochloride] — higher, 450
- CC(C)c1c(C(=O)Nc2ccccc2)c(-c2ccccc2)c(-c2ccc(F)cc2)n1CC[C@@H](O)C[C@@H](O)CC(=O)O [Atorvastatin] — higher, 488
- CC[C@H](C)[C@H]1O[C@]2(C=C[C@@H]1C)C[C@@H]1C[C@@H](C/C=C(\C)[C@@H](O[C@H]3C[C@H](OC)[C@@H](O[C@H]4C[C@H](OC)[C@@H](O)[C@H](C)O4)[C@H](C)O3)[C@@H](C)/C=C/C=C3\CO[C@@H]4[C@H](O)C(C)=C[C@@H](C(=O)O1)[C@]34O)O2 [Avermectin B1a] — higher, 676
- O=C(CCCN1CCN(c2ccccn2)CC1)c1ccc(F)cc1 [Azaperone] — higher, 419
- CCCC1C(=O)N2C(N(C)C)=Nc3ccc(C)cc3N2C1=O (stereo not drawn) [Azapropazone] — higher, 429
- CC[C@H]1OC(=O)[C@H](C)[C@@H](O[C@H]2C[C@@](C)(OC)[C@@H](O)[C@H](C)O2)[C@H](C)[C@@H](O[C@@H]2O[C@H](C)C[C@H](N(C)C)[C@H]2O)[C@](C)(O)C[C@@H](C)CN(C)[C@H](C)[C@@H](O)[C@]1(C)O [Azithromycin] — higher, 467
- CCC(C)C(N)C1=NC(C(=O)N[C@@H](CC(C)C)C(=O)N[C@H](CCC(=O)O)C(=O)N[C@H](C(=O)N[C@H]2CCCCNC(=O)[C@H](CC(N)=O)NC(=O)[C@@H](CC(=O)O)NC(=O)[C@H](Cc3cnc[nH]3)NC(=O)[C@@H](Cc3ccccc3)NC(=O)[C@H]([C@@H](C)CC)NC(=O)[C@@H](CCCN)NC2=O)[C@@H](C)CC)CS1 (stereo partly drawn) [Bacitracin] (X2-L[dE]IK[dOrn]I[dF]H[dD]N; lactam 4-C) — higher, 479
- O=C(CCCN1CCC(n2c(O)nc3ccccc32)CC1)c1ccc(F)cc1 [Benperidol] — lower, 416
- CC1(C)S[C@@H]2[C@H](NC(=O)Cc3ccccc3)C(=O)N2[C@H]1C(=O)O.CC1(C)S[C@@H]2[C@H](NC(=O)Cc3ccccc3)C(=O)N2[C@H]1C(=O)O.c1ccc(CNCCNCc2ccccc2)cc1 [Benzathine benzylpenicillin] — higher, 455
- CCc1oc2ccccc2c1C(=O)c1cc(Br)c(O)c(Br)c1 [Benzbromarone] — higher, 498
